Test results: patent publication US20100216779A1 (GLAXOSMITHKLINE LLC, priority 2007, published 2010)

Experiments:
[1] = tested on: NCI-H929 (multiple myeloma); experiment: Inhibition of cell proliferation, CellTiter-Glo, NCI-H929; format: cell-based; settings: Homo sapiens, 72 h
How it was run: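 Cells were grown in medium with 10% FBS at 37° C, 5% CO2. Cell number was read as CellTiter-Glo luminescence (cellular ATP), with untreated wells as control.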

human IGF1R (hIGF1R) = target: T1, human IGF1R (hIGF1R) (Homo sapiens, UniProt P08069); experiment: IGF1R TR-FRET assay using peptide as the phosphoacceptor; format: biochemical; settings: 10 μM ATP, 0.5 nM activated enzyme
T1 construct: containing amino acid residues 957-1367 of human IGF1R; made in house; host or cells: Sf9 cells, baculovirus
Experimental: A. IR and IGF1 R Time Resolved Fluorescence Resonance Energy Transfer (TR-FRET) Assay Using Peptide as the Phosphoacceptor
Substrate phosphorylation assays are carried out as follows:
The Source of Substrate Peptide
The biotinylated substrate peptide, (sequence-Biotin-aminohexyl-AEEEEY*[…]-NH2) SEQ. ID. 1 is purchased from QCB, Inc. (Hopkinton, Mass.). Purity is determined by HPLC. The calculated molecular mass of the peptide is 2216 dalton. Tyrosine phosphorylation by human IGF1R (hIGF1R) or human IR (hIR) occurs as indicated (Y*) in the peptide sequence described. Solid peptide sample is dissolved to approximately 1 mM in DMSO, aliquoted, and stored at −20° C. until use. True peptide concentration is determined by amino acid analysis.
The Source of Enzyme: • hIGF1R: GST-rTEV-IGF-1R (957-1367) containing amino acid residues 957-1367 of human IGF1R (as annotated by National Center for Biotechnology Information (NCBI) accession number NP_000866) is purified from a baculovirus expression system in Sf9 cells using Glutathione Sepharose 4FF column chromatography followed by Sephadex-200 size exclusion column chromatography. Enzyme purity of approximately 95% is achieved. Samples, in 25 mM Tris-HCl, 250 mM NaCl, 5% glycerol, 1 mM DTT, pH 7.5, are stored at −80° C. until use. • hIR: GST-rTEV-IR(979-1382) containing amino acid residues 979-1382 of human IR (as annotated by NCBI accession number NP_000199) is expressed and purified by the same process as hIGF1R. Enzyme purity of approximately 92% is achieved. Samples, in 25 mM Tris-HCl, 250 mM NaCl, 5% glycerol, 1 mM DTT, pH 7.5, are stored at −80° C. until use.
Activation of hIGF1R and hIR by Autophosphorylation: • hIGF1R: Activation of GST-rTEV-IGF-1R(957-1367) is achieved by a 4 minute incubation of hIGF1R (2.7 μM final) with 2 mM ATP in 50 mM HEPES, 20 mM MgCl2, 0.1 mg/mL BSA, at room temperature. Autophosphorylation is stopped by addition of EDTA (to 100 mM final). Aliquoted samples are flash frozen in liquid nitrogen and stored at −80° C. until use. • hIR: Activation of […] is achieved by a 5 minute incubation of hIR (2.7 μM final) with 2 mM ATP in 100 mM HEPES, 10 mM MgCl2, 0.1 mg/mL BSA, at room temperature. Autophosphorylation is stopped by addition of EDTA (to 100 mM final). Aliquoted samples are flash frozen in liquid nitrogen and stored at −80° C. until use. • Kinase Assay of Purified hIGF1R or hIR:
Assays are performed in 384-well (Greiner, Catalog No. 784076) microtiter plates. Reaction buffer (50 mM HEPES buffer, pH 7.5; 10 mM MgCl2; 3 mM DTT; 1 mM CHAPS; 0.1 mg/mL BSA) for peptide phosphorylation (10 μl volume) contained, in final concentrations, 500 nM biotinylated peptide substrate; 10 μM ATP; and purified, activated hIGF1R or hIR (0.5 nM). Some compounds were initially assayed against IGF1R in buffer without DTT or CHAPS. […] Compounds, titrated in DMSO, are evaluated at eleven concentrations ranging from 50 μM to 0.2 nM. […] No effect on activity relative to controls without DMSO is observed for hIGF1R or IR at these DMSO amounts. Reactions are incubated for 1 hour at room temperature and are stopped by a 5 μl addition of EDTA (to 33 mM). A further addition of 5 μl detection reagents (for final 7 nM Streptavidin-APC (PerkinElmer #CR130-150), 1 nM Europium-labeled anti-phosphotyrosine monoclonal antibody (PerkinElmer #AD0067), added in reaction buffer (without DTT), is required for signal generation. After 30 minutes, signal is read on PerkinElmer Viewlux microplate imager or Wallac Victor fluorometer.
Data were fitted to the curve described by:
y=((Vmax*x)/(K+x)) where • Vmax is the upper asymptote and • K is the IC50.
The results for each tested compound were recorded as pIC50 calculated as follows: […]

human IR (hIR) = target: T2, human IR (hIR) (Homo sapiens, UniProt P06213); experiment: IR TR-FRET assay using peptide as the phosphoacceptor; format: biochemical; settings: 10 μM ATP, 0.5 nM activated enzyme
T2 construct: containing amino acid residues 979-1382 of human IR; GST (N); rTEV protease site (linker between GST and kinase) (N); made in house; host or cells: Sf9 cells, baculovirus (same process as hIGF1R)
Experimental: Reaction buffer (50 mM HEPES buffer, pH 7.5; 10 mM MgCl2; 3 mM DTT; 1 mM CHAPS; 0.1 mg/mL BSA) for peptide phosphorylation (10 μl volume) contained, in final concentrations, 500 nM biotinylated peptide substrate; 10 μM ATP; and purified, activated hIGF1R or hIR (0.5 nM). Some compounds were initially assayed against IGF1R in buffer without DTT or CHAPS. […] Compounds, titrated in DMSO, are evaluated at eleven concentrations ranging from 50 μM to 0.2 nM. […] Reactions are incubated for 1 hour at room temperature and are stopped by a 5 μl addition of EDTA (to 33 mM). A further addition of 5 μl detection reagents (for final 7 nM Streptavidin-APC (PerkinElmer #CR130-150), 1 nM Europium-labeled anti-phosphotyrosine monoclonal antibody (PerkinElmer #AD0067), added in reaction buffer (without DTT), is required for signal generation. After 30 minutes, signal is read on PerkinElmer Viewlux microplate imager or Wallac Victor fluorometer.
The data for compound concentration responses were plotted as % Inhibition, calculated with the data reduction formula 100*(1-[(U1-C2)/(C1-C2)]), versus concentration of compound, where • U is the unknown value, • C1 is the average control value obtained for DMSO only, and
C2 is the average control value obtained for reactions stopped with EDTA at t=0.

[2] = target: T3, human IGF-1R (NIH-3T3 cells over expressing human IGF-1R) (Homo sapiens, UniProt P08069); experiment: IGF-1R cellular autophosphorylation (DELFIA); format: cell-based; settings: IGF-1 stimulated
T3 construct: expressed in transfected cells; host or cells: NIH-3T3 (mouse fibroblasts)
How it was run: (§1)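 Receptor-overexpressing NIH-3T3, 10% FBS, 37 °C; cpd 30 uM–1.5 nM × 2 h; stim IGF-1 30 ng/mL (IGF-1R) or insulin 3 ug/mL (IR), 15 min; lysate DELFIA, Eu anti-pTyr; % of stimulated signal.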

COLO205 (colon) = experiment: Inhibition of cell proliferation, CellTiter-Glo, COLO205; format: cell-based; settings: Homo sapiens, COLO 205, 72 h
How it was run: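 Exponentially growing COLO205 cells in medium with 10% FBS were plated below 2000 cells/well at 37 °C, 5% CO2. Untreated wells served as controls.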

[3] = target: T4, IR (NIH-3T3 cells over expressing human IGF-1R or IR) (Homo sapiens, UniProt P06213); experiment: IR cellular autophosphorylation (DELFIA); format: cell-based; settings: NIH-3T3 cells over expressing IR, insulin stimulated
T4 construct: expressed in transfected cells; host or cells: NIH-3T3 (mouse fibroblasts)
How it was run: as §1

T3 sequence (P08069 31-1367): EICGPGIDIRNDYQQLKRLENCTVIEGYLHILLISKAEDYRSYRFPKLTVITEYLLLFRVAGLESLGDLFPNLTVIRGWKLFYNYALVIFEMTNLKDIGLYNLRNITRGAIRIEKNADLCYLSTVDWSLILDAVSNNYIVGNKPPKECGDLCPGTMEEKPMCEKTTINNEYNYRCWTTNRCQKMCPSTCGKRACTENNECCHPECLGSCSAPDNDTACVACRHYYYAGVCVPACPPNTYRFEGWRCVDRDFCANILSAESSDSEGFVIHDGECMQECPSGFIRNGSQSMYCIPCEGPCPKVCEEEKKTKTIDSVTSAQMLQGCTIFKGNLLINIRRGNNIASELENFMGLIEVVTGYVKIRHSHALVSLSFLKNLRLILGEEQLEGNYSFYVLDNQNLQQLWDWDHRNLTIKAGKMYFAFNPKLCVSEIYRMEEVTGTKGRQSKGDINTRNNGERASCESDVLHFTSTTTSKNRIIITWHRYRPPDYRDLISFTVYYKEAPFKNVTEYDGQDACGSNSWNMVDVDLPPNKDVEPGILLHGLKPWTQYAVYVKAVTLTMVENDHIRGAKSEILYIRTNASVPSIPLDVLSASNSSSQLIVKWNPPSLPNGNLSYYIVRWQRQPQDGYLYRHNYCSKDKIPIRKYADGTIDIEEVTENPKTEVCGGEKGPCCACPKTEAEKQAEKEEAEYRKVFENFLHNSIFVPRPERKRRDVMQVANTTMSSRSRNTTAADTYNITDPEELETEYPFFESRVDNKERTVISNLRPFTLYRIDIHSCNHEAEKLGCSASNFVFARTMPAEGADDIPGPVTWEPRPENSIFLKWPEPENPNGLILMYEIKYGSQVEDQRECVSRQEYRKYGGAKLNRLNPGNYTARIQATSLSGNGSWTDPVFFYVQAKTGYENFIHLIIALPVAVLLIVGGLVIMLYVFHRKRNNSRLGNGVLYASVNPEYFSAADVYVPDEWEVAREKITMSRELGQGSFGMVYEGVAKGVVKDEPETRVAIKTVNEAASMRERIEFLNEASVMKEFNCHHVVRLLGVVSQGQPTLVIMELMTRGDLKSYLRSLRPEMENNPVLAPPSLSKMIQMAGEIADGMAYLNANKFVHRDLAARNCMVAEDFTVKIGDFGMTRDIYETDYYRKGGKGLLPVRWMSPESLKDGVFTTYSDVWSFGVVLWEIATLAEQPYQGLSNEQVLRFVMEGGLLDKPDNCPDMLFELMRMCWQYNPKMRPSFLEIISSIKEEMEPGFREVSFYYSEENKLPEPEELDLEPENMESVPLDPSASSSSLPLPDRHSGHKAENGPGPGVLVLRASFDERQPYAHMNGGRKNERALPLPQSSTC
T1 sequence (P08069 957-1367): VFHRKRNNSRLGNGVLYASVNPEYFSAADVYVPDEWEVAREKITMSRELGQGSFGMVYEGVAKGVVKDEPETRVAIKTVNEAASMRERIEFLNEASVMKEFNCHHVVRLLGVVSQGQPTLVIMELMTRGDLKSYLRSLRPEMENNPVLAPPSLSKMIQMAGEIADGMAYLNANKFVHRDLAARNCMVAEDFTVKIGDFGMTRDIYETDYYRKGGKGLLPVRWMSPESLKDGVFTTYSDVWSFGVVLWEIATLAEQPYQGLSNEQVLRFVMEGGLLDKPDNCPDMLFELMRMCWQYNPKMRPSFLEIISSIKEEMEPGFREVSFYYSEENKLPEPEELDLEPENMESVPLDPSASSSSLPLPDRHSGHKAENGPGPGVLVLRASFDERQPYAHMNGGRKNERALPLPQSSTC
T4 sequence (P06213 28-1382): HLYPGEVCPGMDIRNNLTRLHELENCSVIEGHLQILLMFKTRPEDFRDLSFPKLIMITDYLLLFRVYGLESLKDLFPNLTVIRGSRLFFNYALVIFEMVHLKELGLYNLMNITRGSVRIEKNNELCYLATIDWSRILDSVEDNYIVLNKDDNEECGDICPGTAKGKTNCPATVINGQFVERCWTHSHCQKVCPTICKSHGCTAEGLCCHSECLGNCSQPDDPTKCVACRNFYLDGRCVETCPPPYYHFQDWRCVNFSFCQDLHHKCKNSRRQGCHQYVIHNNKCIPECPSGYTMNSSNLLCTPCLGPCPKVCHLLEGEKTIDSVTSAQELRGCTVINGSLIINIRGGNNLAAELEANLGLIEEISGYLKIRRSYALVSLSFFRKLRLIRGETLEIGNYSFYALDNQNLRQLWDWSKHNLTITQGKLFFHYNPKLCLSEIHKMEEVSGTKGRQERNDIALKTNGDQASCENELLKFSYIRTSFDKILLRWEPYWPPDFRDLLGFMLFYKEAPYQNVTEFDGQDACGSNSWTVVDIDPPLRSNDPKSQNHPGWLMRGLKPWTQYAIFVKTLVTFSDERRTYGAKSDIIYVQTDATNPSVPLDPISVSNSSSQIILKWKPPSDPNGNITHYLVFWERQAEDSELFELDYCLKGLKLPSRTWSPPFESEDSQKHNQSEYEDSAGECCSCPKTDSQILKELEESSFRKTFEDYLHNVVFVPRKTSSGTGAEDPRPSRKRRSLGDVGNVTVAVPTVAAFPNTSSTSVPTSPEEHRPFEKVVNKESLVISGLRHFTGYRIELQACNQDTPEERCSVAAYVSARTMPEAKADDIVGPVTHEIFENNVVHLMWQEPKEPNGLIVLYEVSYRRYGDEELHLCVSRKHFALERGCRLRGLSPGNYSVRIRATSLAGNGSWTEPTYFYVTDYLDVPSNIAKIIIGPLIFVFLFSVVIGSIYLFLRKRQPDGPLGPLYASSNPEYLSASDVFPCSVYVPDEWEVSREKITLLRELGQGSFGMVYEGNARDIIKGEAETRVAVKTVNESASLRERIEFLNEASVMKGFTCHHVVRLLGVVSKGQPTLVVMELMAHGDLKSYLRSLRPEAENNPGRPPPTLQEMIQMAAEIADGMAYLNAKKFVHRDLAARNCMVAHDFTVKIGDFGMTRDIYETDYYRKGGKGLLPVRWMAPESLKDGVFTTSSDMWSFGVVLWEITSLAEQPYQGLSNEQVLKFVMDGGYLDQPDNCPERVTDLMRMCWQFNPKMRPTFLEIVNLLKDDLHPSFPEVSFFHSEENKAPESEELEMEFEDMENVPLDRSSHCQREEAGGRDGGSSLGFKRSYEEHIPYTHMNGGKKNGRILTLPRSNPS
T2 sequence (P06213 979-1382): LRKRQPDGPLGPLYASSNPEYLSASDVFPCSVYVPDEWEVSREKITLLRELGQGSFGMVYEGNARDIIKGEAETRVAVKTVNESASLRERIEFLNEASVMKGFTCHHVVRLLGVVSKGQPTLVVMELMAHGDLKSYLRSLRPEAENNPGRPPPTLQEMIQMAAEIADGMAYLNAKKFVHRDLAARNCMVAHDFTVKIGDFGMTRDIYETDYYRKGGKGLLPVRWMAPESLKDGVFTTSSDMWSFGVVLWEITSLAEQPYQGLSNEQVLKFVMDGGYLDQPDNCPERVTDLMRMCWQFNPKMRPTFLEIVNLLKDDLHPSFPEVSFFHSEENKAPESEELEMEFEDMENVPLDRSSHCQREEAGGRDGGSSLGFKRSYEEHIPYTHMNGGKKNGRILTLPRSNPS

CCOc1cc(N2CCC(CCS(C)(=O)=O)CC2)c(C)cc1Nc1nccc(-c2c(-c3ccc(OC(C)C)c(C(=O)Nc4c(F)cccc4F)c3)nc3ccccn23)n1 [Example 215] was tested, and the IC50 [1] was less than 250 nM, the “IGF-1R pIC50” value (human IGF1R (hIGF1R)) was “++ (at least one average pIC50 measurement greater than 6 against the kinase tested but no average measurement greater than pIC50 of 7)” and the “IR pIC50” value (human IR (hIR)) was “++ (at least one average pIC50 measurement greater than 6 against the kinase tested but no average measurement greater than pIC50 of 7)”. For the same compound, the IC50 [2] was less than 100 nM, the IC50 (COLO205 (colon)) was less than 250 nM and the IC50 [3] was less than 100 nM.
